# What was measured:
# [1] = system: human cervical cancer cell line Hela; test: In vitro antitumor/anticancer testing (CCK-8), Hela; assay type: cell-based; details: 48 h
# Procedure: (§1) Each of Tea Product 1 and Conventional Tea Product obtained in section A of this example was used to prepare test tea samples according to the method described below. A proper amount of the respective tea product was added into sterile water to prepare a stock solution with a concentration of 100 mg/mL, followed by using a membrane filter with a pore size of 0.22 μm to conduct vacuum filtration and sterilization. The resulting stock solution was diluted with a respective complete medium shown in Table 3 below to form test tea samples with different concentrations. In other words, the thus obtained test tea samples to be used for treating a respective cancer/tumor cell line shown in Table 3 were prepared using the same complete medium as that for the respective cancer/tumor cell line. […] Specifically, each of the aforesaid commercially available agents was subjected to the method described below to prepare comparative test samples. A proper amount of a respective commercially available agent was dissolved in phosphate-buffered saline (PBS) to prepare a stock solution with a concentration of 5 mg/mL, followed by using a membrane filter with a pore size of 0.22 μm to conduct vacuum filtration and sterilization. The resulting stock solution was diluted with a respective complete medium shown in Table 3 below to form comparative test samples with different concentrations. To be specific, the comparative test samples prepared from the respective commercially available agent have the concentrations shown in Table 2 below. The thus obtained comparative test samples to be used for treating a respective cancer/tumor cell line shown in Table 3 were prepared using the same complete medium as that for the respective cancer/tumor cell line. […] The cultivation of each cancer/tumor cell line is described as follows. […] Afterwards, a cell suspension having a cell density of 1.0×10^4 cells/mL was prepared. […] As experimental groups, the tumor/cancer cells of each cell line were treated with the test tea samples prepared from one or more of the tea products and the comparative test samples prepared from one or more of the commercially available agents as obtained in section B of this example (for more detailed information about the tea product(s) and the commercially available product (s) used to treat each cell line, please see Table 4 below). To be specific, 6 to 10 test tea samples prepared from the same tea product and having different concentrations, as well as 6 to 10 comparative test samples prepared from the same commercially available agent and having different concentrations, were utilized to treat the tumor/cancer cells of each cell line. For each experimental group, 6 repetitions of tumor/cancer treatment were performed. For the control group, 100 μL of PBS was added to a well containing the medium and the cancer/tumor cells of the respective cell line. For the blank group, 100 μL of PBS was added to a well containing a complete medium the same as that used for cultivation of the cancer/tumor cells of the respective cell line. After the treatment described above, cultivation was conducted in an incubator (37° C., 100% relative humidity, 5% CO2) for 48 hours. Subsequently, the liquid containing the medium and the sample in the well was removed, and a respective complete medium (shown in Table 3 above) containing 10% CCK-8 (Cell Counting Kit-8)(Dojindo Molecular Technologies, Inc., Cat. No. CK04-13) was added. Cultivation was performed in an incubator (37° C.) for 2 to 4 hours, followed by gently shaking.
# [2] = system: human ovarian cancer cell line SK-OV-3; test: In vitro antitumor/anticancer testing (CCK-8), SK-OV-3; assay type: cell-based; details: 48 h
# Procedure: as §1
# [3] = system: human mammary gland/duct cancer cell line BT-474; test: In vitro antitumor/anticancer testing (CCK-8), BT-474; assay type: cell-based; details: 48 h
# Procedure: as §1
# [4] = system: human lung cancer cell line A549; test: In vitro antitumor/anticancer testing (CCK-8), A549; assay type: cell-based; details: 48 h
# Procedure: as §1
# [5] = system: HepG2 cells (human liver cancer cells) transplanted tumor; test: In vivo antitumor testing, first experiment (Animal Model 1); parameters: species or system BALB/c nude mice; details: 35 days, 5-fluorouracil 15.0 mg/kg per day intra-abdominal injection, Tea Product 1 0.6 mL of 10% per day intragastric gavage
# Procedure: The establishment of Animal Model 1 is addressed as follows. […] SCXK (Hu) 2012-0002) were purchased from Shanghai Silaike Experiment Animal Co., Ltd and were acclimatized for one week. HepG2 cells (human liver cancer cells) mentioned in section C of Example 3 were cultivated in the corresponding complete medium (see Table 3) supplemented with 100 μg/mL penicillin and 100 μg/mL streptomycin in an incubator (37° C., 100% relative humidity, 5% CO2). When adherent cancer/tumor cells reached 97% confluence, the medium was removed. Cell detachment was conducted using trypsin, and the detached cells were transferred to a centrifuge tube. Centrifugation was conducted, and the resulting supernatant was removed. Staining was performed with a 0.4% trypan blue, and it was determined that the cell viability was higher than 97%. A cell suspension having a concentration of […] was prepared using PBS. 0.2 mL of the cell suspension was subcutaneously injected into each of the nude mice at a position posterior to the axilla. […] Tea Product 1 and Conventional Tea Product obtained in section A of Example 3, as well as 5-fluorouracil mentioned in section B of Example 3, were examined for their in vivo antitumor activity. […] In all the three experiments above, each of the nude mice was sacrificed 24 hours after the termination of the treatment. The tumor was collected and weighed. The antitumor effect of a respective test substance was evaluated by virtue of the percent tumor growth inhibition (%), which was calculated using the following Equation II: E=[(F−G)/(F)]×100% (I) • E=percent tumor growth inhibition (%) • F=tumor weight of control group • G=tumor weight of respective test substance group The experimental data are expressed as mean±SEM (standard error of the mean). The experimental data were subjected to one-way analysis of variance (ANOVA) using SPSS (Statistical Package for Social Sciences) software package version 11.5, such that the difference between the groups could be evaluated. The data regarding the tumor weights of the groups were subjected to t-test. […]
structure (smiles),measurement,setting,value
"O=C(O[C@@H]1Cc2c(O)cc(O)cc2O[C@@H]1c1cc(O)c(O)c(O)c1)c1cc(O)c(O)c(O)c1 [EGCG monomer, epigallocatechin gallate]",Percent growth inhibition,[1]; 0.3125 μg/mL,4.13%
same,Percent growth inhibition,[1]; 0.625 μg/mL,−0.68%
same,Percent growth inhibition,[1]; 1.25 μg/mL,1.08%
same,Percent growth inhibition,[1]; 2.5 μg/mL,−8.94%
same,Percent growth inhibition,[1]; 5 μg/mL,−6.50%
same,Percent growth inhibition,[1]; 10 μg/mL,−22.63%
same,Percent growth inhibition,[1]; 20 μg/mL,−20.22%
same,Percent growth inhibition,[1]; 40 μg/mL,−23.80%
same,Percent growth inhibition,[1]; 80 μg/mL,36.66%
same,IC50,[1]; Hela,IC50 (μg/mL) = 101.2
same,Percent growth inhibition,[2]; 0.3125 μg/mL,2.20%
same,Percent growth inhibition,[2]; 0.625 μg/mL,3.98%
same,Percent growth inhibition,[2]; 1.25 μg/mL,3.64%
same,Percent growth inhibition,[2]; 2.5 μg/mL,5.54%
same,Percent growth inhibition,[2]; 5 μg/mL,6.15%
same,Percent growth inhibition,[2]; 10 μg/mL,4.47%
same,Percent growth inhibition,[2]; 20 μg/mL,36.88%
same,Percent growth inhibition,[2]; 40 μg/mL,81.73%
same,Percent growth inhibition,[2]; 80 μg/mL,99.42%
same,IC50,[2]; SK-OV-3,IC50 (μg/mL) = 24.05
same,Percent growth inhibition,[3]; 2.5 μg/mL,6.51%
same,Percent growth inhibition,[3]; 5 μg/mL,2.62%
same,Percent growth inhibition,[3]; 10 μg/mL,−2.75%
same,Percent growth inhibition,[3]; 20 μg/mL,−6.45%
same,Percent growth inhibition,[3]; 40 μg/mL,−20.61%
same,Percent growth inhibition,[3]; 80 μg/mL,57.40%
same,Percent growth inhibition,[3]; 160 μg/mL,96.45%
same,Percent growth inhibition,[3]; 320 μg/mL,97.46%
same,Percent growth inhibition,[3]; 640 μg/mL,97.03%
same,IC50,[3]; BT-474,IC50 (μg/mL) = 74.75
same,Percent growth inhibition,[4]; 0.625 μg/mL,6.69%
same,Percent growth inhibition,[4]; 1.25 μg/mL,5.92%
same,Percent growth inhibition,[4]; 2.5 μg/mL,7.35%
same,Percent growth inhibition,[4]; 5 μg/mL,6.76%
same,Percent growth inhibition,[4]; 10 μg/mL,9.62%
same,Percent growth inhibition,[4]; 20 μg/mL,23.21%
same,Percent growth inhibition,[4]; 40 μg/mL,35.39%
same,Percent growth inhibition,[4]; 80 μg/mL,60.18%
same,IC50,[4]; A549,IC50 (μg/mL) = 59.74
O=c1[nH]cc(F)c(=O)[nH]1 [5-fluorouracil],Body weight After treatment,[5],72.90 g
same,Percent tumor growth inhibition,[5],80.84%
same,Tumor weight,[5],0.08 g

# Source: US20180071354A1, “SELECTIVE BREEDING METHOD OF ANTITUMOR/ANTICANCER CAMELLIA SINENSIS STRAIN, AND TEA PRODUCT OF SUCH STRAIN” (FUJIAN AGRICULTURE AND FORESTRY UNIVERSITY, priority 2015, published 2018)
